Reference: ChEMBL document CHEMBL3507680, “University of Dundee, Gates Library screen for HepG2 cell viability”

Test: Human HepG2 cell viability assay in 384 well format
Assay type: toxicity, cell-based
Design: dose 125 nL, time 70.5 hour; concentration not given beside the values
Settings: HepG2 cells, read-out: Inhibition

Cc1occc1CNc1ncccc1S(N)(=O)=O
cytotoxicity at 70.5 h: -3.76%

CCCc1nc(CNC2(c3nccs3)CCCC2)cs1
cytotoxicity at 70.5 h: 4.59%

CC(C)(CO)Nc1cc(-c2cn[nH]c2)ncn1
cytotoxicity at 70.5 h: -2.91%

COCCN1CCc2ccc(=O)n(Cc3csc(C)n3)c2CC1
cytotoxicity at 70.5 h: -6.35%

CCn1cc(-c2cc(C(F)F)n3nc(CC(=O)O)nc3n2)cn1
cytotoxicity at 70.5 h: 0.375%

Cc1c(C)n(-c2ccccn2)c2nc3c(c(N)c12)CCCCC3
cytotoxicity at 70.5 h: -10.8%

CC(C)(C)C(=O)N1CCC(n2nc(-c3ccco3)ccc2=O)CC1
cytotoxicity at 70.5 h: -4.38%

CCc1cc(NCCCNS(C)(=O)=O)nc(-c2ccccn2)n1
cytotoxicity at 70.5 h: -7.43%

CSCCC(C)NC(=O)N1CCSC(C)(C)C1 (centres undefined)
cytotoxicity at 70.5 h: 22.4%

Cc1cccc(CN2C[C@@H]3CN(C(=O)c4ccnnc4)C[C@@H]3C2=O)c1
cytotoxicity at 70.5 h: -2.38%

Cc1noc(CCCC(=O)N(CC2CCOC2)C2CC2)n1 (centres undefined)
cytotoxicity at 70.5 h: -11%

CCS(=O)(=O)N1Cc2nccn2CC(Cn2cccn2)C1 (centres undefined)
cytotoxicity at 70.5 h: 1.18%

CC(C)CC(=O)N1CC[C@H]2C[C@H](c3nccs3)O[C@@H]2C1
cytotoxicity at 70.5 h: 2.63%

COc1cc(CNC(=O)N(Cc2ccc(F)cc2F)C2CC2)ccn1
cytotoxicity at 70.5 h: -12.9%

Cc1cccc2cc(CO)c(N3Cc4cnc(C(C)(C)C)nc4C3)nc12
cytotoxicity at 70.5 h: 7.83%

Cc1nc2n(n1)CC(NCc1cnn(-c3ccccc3)n1)CC2 (centres undefined)
cytotoxicity at 70.5 h: -9.59%

O=C(c1ccsc1)N1CCc2onc(CN3CCOCC3)c2C1
cytotoxicity at 70.5 h: -4.87%

Cc1csc(N2CCN(C3CCc4ccccc4C3)CC2)n1 (centres undefined)
cytotoxicity at 70.5 h: 13%

O=C1CO[C@@H]2CN(Cc3cccnc3)C[C@H]2N1Cc1ccncc1
cytotoxicity at 70.5 h: -6.09%

Cn1cc(N2CC3(CCN(C(=O)c4cccn4C)CC3)OCC2=O)cn1
cytotoxicity at 70.5 h: -12.8%

COCC(=O)N1CCC(=O)N(C2CCCC2)Cc2cc(F)ccc21
cytotoxicity at 70.5 h: -5.37%

CNC(=O)c1cn[nH]c1C1(C)CCCN(Cc2ccccn2)C1 (centres undefined)
cytotoxicity at 70.5 h: -7.3%

CC(C)c1nc(CN2CCOC(Cn3cncn3)C2)no1 (centres undefined)
cytotoxicity at 70.5 h: -8.23%

COCC(=O)N1CCN(C)C(=O)C(Cc2ccc(-c3cccs3)cc2)C1 (centres undefined)
cytotoxicity at 70.5 h: -1.25%

O[C@H]1CN(CCOc2ccc(F)cc2)CC[C@@]12CCCO2
cytotoxicity at 70.5 h: -2.62%

CC(C)CS(=O)(=O)CC(=O)N1CCCC1c1noc(C2CC2)n1 (centres undefined)
cytotoxicity at 70.5 h: -8.35%

COc1cc(F)c(C(=O)N2C[C@@H](CN(C)CCO)[C@@H](CO)C2)c(F)c1
cytotoxicity at 70.5 h: -2.86%

Cc1[nH]ccc1C(=O)Nc1cccc(CN2CCC(O)CC2)c1
cytotoxicity at 70.5 h: 1.4%

CC(=O)NC1CCCN(C(=O)NCc2ccc(-n3cccn3)cc2)C1 (centres undefined)
cytotoxicity at 70.5 h: -2.4%

CC(C)N1CCc2ncn(C)c2C1C(=O)N1CCOCC1 (centres undefined)
cytotoxicity at 70.5 h: 5.22%

CC(C)(C)C(=O)NC[C@H]1Cn2c(-c3ccccc3)cnc2CO1
cytotoxicity at 70.5 h: -9.72%

CN(C)c1ccc(C(=O)N2CCN(CC(C)(C)O)CC2)nn1
cytotoxicity at 70.5 h: -2.1%

CC(=O)N1CCC(n2nccc2-c2cnc(NCCO)nc2)CC1
cytotoxicity at 70.5 h: -9.44%

CN(Cc1ccsc1)C(=O)CN1CCCC(Cn2cncn2)C1 (centres undefined)
cytotoxicity at 70.5 h: -5.89%

Cc1ccc(Cl)cc1S(=O)(=O)NCc1cnc(N(C)C)n1C
cytotoxicity at 70.5 h: -11.7%

CCNC(=O)c1ccc2c(c1)nc1n2CCN(C(C)C)C1
cytotoxicity at 70.5 h: -9.53%

CCOC1COC2(CCN(CC3CCOCC3)CC2)C1 (centres undefined)
cytotoxicity at 70.5 h: 14.7%

CCc1noc(CCC(=O)N[C@@H]2CC[C@@H](n3ccnc3C)[C@@H]2O)n1
cytotoxicity at 70.5 h: -1.14%

CCCN(CC)C(=O)c1cc(Cn2c(C)nc3ccccc32)[nH]n1
cytotoxicity at 70.5 h: -4.58%

CCS(=O)(=O)N1CCC2(CC(=O)N(c3cncnc3)C2)C1 (centres undefined)
cytotoxicity at 70.5 h: -3.21%

Cc1nc(CN2C(=O)CCC23CCN(Cc2ccccn2)CC3)cs1
cytotoxicity at 70.5 h: -6.85%

CCCNS(=O)(=O)c1ccc2[nH]c(=O)cc(C)c2c1
cytotoxicity at 70.5 h: -12.9%

Cc1cncc(C(=O)N2CCCCC2c2nc[nH]n2)c1 (centres undefined)
cytotoxicity at 70.5 h: -4.36%

Cc1noc2nc3c(c(C(=O)/N=c4\[nH]nc(C(C)C)s4)c12)CCC3
cytotoxicity at 70.5 h: -12.5%

Cc1cc(C(C)NC(=O)CCn2nnc3ccccc3c2=O)c(C)o1 (centres undefined)
cytotoxicity at 70.5 h: -5.41%

Cc1nc(C)n(CC2CCCCN2CC(=O)Nc2c(C)n[nH]c2C)n1 (centres undefined)
cytotoxicity at 70.5 h: -1.79%

Cc1oc(-c2ccoc2)nc1CN1CCC[C@H]1CO
cytotoxicity at 70.5 h: -3.95%

CCc1nnc(CNC2CCc3nc(C(C)C)nn3C2)o1 (centres undefined)
cytotoxicity at 70.5 h: 0.155%

Cc1cccc2c1cnn2CCCNC(=O)C(C)C
cytotoxicity at 70.5 h: -10%

Cc1cc(CC(C)NC2CCN(CC(C)C)CC2)[nH]n1 (centres undefined)
cytotoxicity at 70.5 h: -10.6%

COc1cccc(CN(C)C(C)C(=O)Nc2nc(C)c(C)s2)c1 (centres undefined)
cytotoxicity at 70.5 h: -11.4%

CC(C)c1nc(CN2CCOC(Cn3cncn3)C2)cs1 (centres undefined)
cytotoxicity at 70.5 h: -3.19%

CN(C)[C@@H]1CCN(C(=O)c2ccccn2)[C@H]1Cc1ccncc1
cytotoxicity at 70.5 h: -13%

CCN1CCN(C(C)(C)CNc2nc(C)cc(C3CCC3)n2)CC1
cytotoxicity at 70.5 h: -5.33%

CC(=O)N1CCn2c(COCc3csc(C)n3)cnc2C1C (centres undefined)
cytotoxicity at 70.5 h: -20.1%

Cc1cc(=O)n(CC(=O)NCC2CCCO2)c(-c2ccccc2)n1 (centres undefined)
cytotoxicity at 70.5 h: 2.72%

c1cnc(OCc2nnc3n2CCN(Cc2ccco2)C3)nc1
cytotoxicity at 70.5 h: -0.839%

CC(C)C(=O)N1CCOC2(COCCN(c3ncccn3)C2)C1 (centres undefined)
cytotoxicity at 70.5 h: -11.8%

CC(NC(=O)N1CCCC1)c1ccc(S(N)(=O)=O)cc1 (centres undefined)
cytotoxicity at 70.5 h: -13%

COc1ccccc1NC(=O)Cn1c(=O)nc(N)c2cc(C)sc21
cytotoxicity at 70.5 h: -16.1%

Cc1ccc(CC(=O)N2CCCC(c3nccs3)C2)cn1 (centres undefined)
cytotoxicity at 70.5 h: -4.34%

O=C(Cn1nnn(-c2cccs2)c1=O)NCC1CCOC1 (centres undefined)
cytotoxicity at 70.5 h: 11.8%

CC(C)c1nc(CN(CC(N)=O)C(C)C)cs1
cytotoxicity at 70.5 h: -2.05%

Cc1cc(C)nc(C2CCCN2C(=O)c2coc(C)n2)n1 (centres undefined)
cytotoxicity at 70.5 h: 23%

CCn1ccnc1CN1CCCN(C(=O)c2cncnc2C)CC1
cytotoxicity at 70.5 h: 0.803%

Cc1nc(C)n(CC2CCCN2Cc2ccc(F)cc2C#N)n1 (centres undefined)
cytotoxicity at 70.5 h: 5.18%

Cc1ccc(C(C)NC(=O)CCc2cnn(C)c2)cc1F (centres undefined)
cytotoxicity at 70.5 h: -8.21%

CN(C)Cc1cccc(-c2cccnc2C(=O)NCc2cn(C)cn2)c1
cytotoxicity at 70.5 h: -1.14%

O=C(NCc1ccon1)N1CCC(n2ccc(C(F)(F)F)n2)CC1
cytotoxicity at 70.5 h: -94.1%

Cc1nccc([C@@H]2C[C@@H]3CCN(S(=O)(=O)C4CC4)C[C@H]3O2)n1
cytotoxicity at 70.5 h: -1.95%

Cc1cnccc1CN1C[C@@H](O)[C@H](Oc2cccc(F)c2)C1
cytotoxicity at 70.5 h: -3.81%

Cc1ccc(N2CCCC(NCc3cnc(C)s3)C2)nn1 (centres undefined)
cytotoxicity at 70.5 h: -1.22%

O=C(Cc1cccs1)N1C[C@@H]2COC[C@]2(COc2cccnc2)C1
cytotoxicity at 70.5 h: -1.72%

COC(=O)N1CCCC(C(=O)Nc2nc(C)c(SC)s2)C1 (centres undefined)
cytotoxicity at 70.5 h: -9.54%

Cc1ccccc1CC1(CO)CCCN(c2ncncc2C(C)C)C1 (centres undefined)
cytotoxicity at 70.5 h: 5.34%

O=C(c1cccs1)N1CC[C@H]2[C@@H]1CCC(=O)N2c1cccnc1
cytotoxicity at 70.5 h: -11.5%

CC1(C)CN(C(=O)c2ncc(F)cc2F)CCC1(O)CN1CCOCC1 (centres undefined)
cytotoxicity at 70.5 h: -0.112%

O=S(=O)(NCC1(O)CCOc2ccccc21)c1cccs1 (centres undefined)
cytotoxicity at 70.5 h: 3.15%

CCOc1ncnc2c1CCN(S(=O)(=O)c1ccccc1)CC2
cytotoxicity at 70.5 h: -14.4%

CS(=O)(=O)NC(=O)c1ccn(-c2cccc(Br)c2)n1
cytotoxicity at 70.5 h: -3.84%

CN(C)C(=O)c1cccc(CCNc2ccccc2S(C)(=O)=O)c1
cytotoxicity at 70.5 h: -0.957%

NC(=O)c1cc(C2CCCN(CCOCC(F)(F)F)C2)n[nH]1 (centres undefined)
cytotoxicity at 70.5 h: 34.2%

CN(C)[C@@H]1CN(C(=O)Cc2ccsc2)[C@@H]2CCCO[C@H]12
cytotoxicity at 70.5 h: 16.1%

CC(C(=O)Nc1cc(F)ccc1F)N1CCN(Cc2ncc[nH]2)CC1 (centres undefined)
cytotoxicity at 70.5 h: 42.5%

CCc1ccc(CNc2cc(N3CCCC3CO)ncn2)s1 (centres undefined)
cytotoxicity at 70.5 h: 1.8%

CC(C)C1CN(C(=O)c2ccccc2)CCS1 (centres undefined)
cytotoxicity at 70.5 h: 2.34%

CNC(=O)CS(=O)(=O)Cc1ccc(OC)c(F)c1
cytotoxicity at 70.5 h: -11.9%

CCOCc1ccccc1NC(=O)NC1CCN(c2ccccc2)C1 (centres undefined)
cytotoxicity at 70.5 h: -4.36%

Cn1cnnc1CC1CCN(Cc2nn(C)c3cccc(Cl)c23)CC1
cytotoxicity at 70.5 h: 39.8%

Cc1ccc(N2CCC(CCN3CCCC3=O)CC2)nn1
cytotoxicity at 70.5 h: -22%

NC(=O)CN1CCC(NC(=O)N2CCCC2c2ccsc2)CC1 (centres undefined)
cytotoxicity at 70.5 h: -6.14%

CS(=O)(=O)NCC1CCCN(C(=O)COCC(F)(F)F)C1 (centres undefined)
cytotoxicity at 70.5 h: -21%

CC(=O)Nc1nc(C2CCN(C(C)C)CC2)cs1
cytotoxicity at 70.5 h: -1.18%

Cc1noc(C)c1C(=O)N1CCOC2(COCCN(C(C)C)C2)C1 (centres undefined)
cytotoxicity at 70.5 h: -1.02%

Cc1cccc(-c2nnn3c2COC(CNCc2nccs2)C3)c1 (centres undefined)
cytotoxicity at 70.5 h: -3.21%

O=C(O)Cn1nc(C2CC2)c2c(-c3ccco3)ccnc21
cytotoxicity at 70.5 h: 30.2%

COc1ccc(OCc2cc(C(=O)N3CCSCC3)n[nH]2)c(Cl)c1
cytotoxicity at 70.5 h: -5.04%

Cc1ccc(F)cc1S(=O)(=O)N(C)CC(N)=O
cytotoxicity at 70.5 h: -11.9%

c1cnc2[nH]c(C3CCCC3)c(CN3CCOCC3)c2c1
cytotoxicity at 70.5 h: -9.59%

CN(C)C(=O)COCC1CN(Cc2ccco2)Cc2ncn(C)c21 (centres undefined)
cytotoxicity at 70.5 h: -0.299%

O=C(CC1CCCCC1)N1CCC(O)(C(F)(F)F)C1 (centres undefined)
cytotoxicity at 70.5 h: 1.99%

CCn1nc2c(cc1=O)CN(CCCN1CCCC1=O)CC2
cytotoxicity at 70.5 h: 16.8%

COCCCN1CC2(CCCCN2C(C)=O)CC1=O (centres undefined)
cytotoxicity at 70.5 h: -7.86%

CS(=O)(=O)Cc1nc(CN2CCc3ccccc3CC2)cs1
cytotoxicity at 70.5 h: 5.16%

Cc1cccnc1NCCNc1cc(C(C)C)nc2ccnn12
cytotoxicity at 70.5 h: -11.6%

Cc1cc(C(=O)N2CCCC(n3cncn3)C2)c(C)n1CC1CC1 (centres undefined)
cytotoxicity at 70.5 h: -2.26%

Cc1cc(NC(=O)NCC(O)COc2ccccc2)n(C)n1 (centres undefined)
cytotoxicity at 70.5 h: -11.6%

Cc1cccc(C(=O)NCc2ccc(S(N)(=O)=O)cc2)n1
cytotoxicity at 70.5 h: -12.2%

COc1ccccc1COCC(O)CN1CCC(c2ccn[nH]2)CC1 (centres undefined)
cytotoxicity at 70.5 h: -8.12%

Cc1cc(C)n(CC(C)NC(=O)c2cc(CN3CCC(O)CC3)on2)n1 (centres undefined)
cytotoxicity at 70.5 h: -9.49%

CCN(C(=O)c1nc2c(s1)CCCN2C(C)=O)C(C)C
cytotoxicity at 70.5 h: 2.41%

CC[C@@H]1N(CC2CCC2)CCC[C@]12CCC(=O)N2Cc1ccncc1
cytotoxicity at 70.5 h: -4.74%

CN1CC2(CCCN(C(=O)Cc3cccc(O)c3)C2)OC1=O (centres undefined)
cytotoxicity at 70.5 h: -6.74%

CCc1[nH]ncc1C(=O)N1CCCN(Cc2cnn(C)c2)CC1
cytotoxicity at 70.5 h: -10.9%
